Results taken from patent publication US20070128217A1 (priority 2003, published 2007).

Tests used:
[1] = tested on: antibodies in sera from SARS patients (sera 1a, 1b, 2, 6, 37, 62, London, SARS-yellow, SARS-green); assay type: binding, human; set-up: Binding of serum 6 to linear peptides of protein X1 of SARS-CoV Urbani / Binding of serum 37 to linear peptides of protein X1 of SARS-CoV Urbani / Binding of serum 6 to looped/cyclic peptide (PEPSCAN-ELISA) / Binding of serum 37 to looped/cyclic peptide (PEPSCAN-ELISA) / Binding of serum 37 to looped/cyclic peptides of protein X1 of SARS-CoV Urbani / Binding of serum 6 to linear peptides of protein X2 / Binding of serum 37 to linear peptides of protein X2 / Binding of serum 37 to looped/cyclic peptides of protein X2 of SARS-CoV Urbani / Binding of serum 6 to linear peptides of protein M of SARS-CoV Urbani / Binding of serum 37 to linear peptides of protein M of SARS-CoV Urbani / Binding of serum 6 to looped/cyclic peptides of protein M of SARS-CoV Urbani / Binding of serum 37 to looped/cyclic peptides of protein M of SARS-CoV Urbani / Binding of serum 6 to linear peptides of protein X3 of SARS-CoV Urbani / Binding of serum 37 to linear peptides of protein X3 of SARS-CoV Urbani / Binding of serum 37 to looped/cyclic peptides of protein X3 of SARS-CoV Urbani / Binding of serum 6 to linear peptides of protein X4 of SARS-CoV Urbani / Binding of serum 37 to linear peptides of protein X4 of SARS-CoV Urbani / Binding of serum 37 to looped/cyclic peptides of protein X4 of SARS-CoV Urbani / Binding of serum 6 to linear peptides of protein X5 of SARS-CoV Urbani / Binding of serum 37 to linear peptides of protein X5 of SARS-CoV Urbani / Binding of serum 37 to looped/cyclic peptides of protein X5 of SARS-CoV Urbani / Binding of serum 6 to linear peptides of protein N of SARS-CoV Urbani / Binding of serum 37 to linear peptides of protein N of SARS-CoV Urbani / Binding of serum 6 to linear peptide (PEPSCAN-ELISA) / Binding of serum 1a to looped/cyclic peptides of protein N of SARS-CoV Urbani / Binding of serum 1b to looped/cyclic peptides of protein N of SARS-CoV Urbani / Binding of serum 2 to looped/cyclic peptides of protein N of SARS-CoV Urbani / Binding of serum 6 to looped/cyclic peptides of protein N of SARS-CoV Urbani / Binding of serum 37 to looped/cyclic peptides of protein N of SARS-CoV Urbani / Binding of serum 62 to looped/cyclic peptides of protein N of SARS-CoV Urbani / Binding of serum London to looped/cyclic peptides of protein N of SARS-CoV Urbani / Binding of serum SARS-green to looped/cyclic peptides of protein N of SARS-CoV Urbani: unit not given here
[2] = tested on: control sera (pooled serum of ten healthy LUMC hospital workers; commercial negative donor pooled serum from the Dutch bloodbank); assay type: binding, human; set-up: Binding of Control serum LUMC to linear peptides / Binding of Control serum Blood-bank to linear peptides / Binding of Control serum LUMC to looped peptides / Binding of Control Serum Blood-Bank to Looped peptides / Binding of Control serum LUMC to linear peptides of the protein M of SARS-CoV Urbani / Binding of Control serum Blood-bank to linear peptides of the protein M of SARS-CoV Urbani / Binding of Control serum LUMC to looped peptides of the protein M of SARS-CoV Urbani / Binding of Control Serum Blood-Bank to Looped peptides of the protein M of SARS-CoV Urbani: unit not given here
[3] = tested on: rabbit serum obtained by immunizing a rabbit with the SARS-CoV strain Frankfurt 1; assay type: binding; set-up: Binding of a rabbit serum to linear peptides / Binding of a rabbit serum to looped peptides / Rabbit serum linear peptides / Rabbit serum looped peptides / Binding of a rabbit serum to linear peptides of protein N of SARS-CoV Urbani (Rabbit serum linear peptides) / Binding of a rabbit serum to looped/cyclic peptides of protein N of SARS-CoV Urbani (Rabbit serum looped peptides): unit not given here

Row | Sequence | Binding of Control Serum Blood-Bank to Looped peptides [2] | Binding of Control serum Blood-bank to linear peptides [2] | Binding of Control serum LUMC to linear peptides [2] | Binding of Control serum LUMC to looped peptides [2] | Rabbit serum linear peptides [3] | Rabbit serum looped peptides [3] | Binding of serum 1a to linear peptides of protein M of SARS-CoV Urbani [1] | Binding of serum 1b to linear peptides of protein M of SARS-CoV Urbani [1] | Binding of serum 2 to linear peptides of protein M of SARS-CoV Urbani [1] | Binding of serum 6 to linear peptides of protein M of SARS-CoV Urbani [1] | Binding of serum 37 to linear peptides of protein M of SARS-CoV Urbani [1] | Binding of serum 62 to linear peptides of protein M of SARS-CoV Urbani [1] | Binding of serum London to linear peptides of protein M of SARS-CoV Urbani [1] | Binding of serum SARS-green to linear peptides of protein M of SARS-CoV Urbani [1] | Binding of serum SARS-yellow to linear peptides of protein M of SARS-CoV Urbani [1] | Binding of Control Serum Blood-Bank to Looped peptides of the protein M of SARS-CoV Urbani [2] | Binding of Control serum Blood-bank to linear peptides of the protein M of SARS-CoV Urbani [2] | Binding of Control serum LUMC to linear peptides of the protein M of SARS-CoV Urbani [2] | Binding of Control serum LUMC to looped peptides of the protein M of SARS-CoV Urbani [2] | Binding of serum 1a to looped/cyclic peptides of protein M of SARS-CoV Urbani [1] | other results
1 | LLFVTIYSHLLLVAA | 0.4 | 0.5 | 0.4 | 0.6 | – | – | – | – | – | – | – | – | – | – | – | – | – | – | – | – | Binding of serum 1a to linear peptides of protein X1 of SARS-CoV Urbani [1]: 0.7; Binding of serum 1a to looped/cyclic peptide (PEPSCAN-ELISA) [1]: 0.4; Binding of serum 1b to linear peptides of protein X1 of SARS-CoV Urbani [1]: 0.2; Binding of serum 1b to looped/cyclic peptide (PEPSCAN-ELISA) [1]: 0.3; Binding of serum 2 to linear peptides of protein X1 of SARS-CoV Urbani [1]: 0.5; Binding of serum 2 to looped/cyclic peptide (PEPSCAN-ELISA) [1]: 0.3; Binding of serum 6 to linear peptides of protein X1 of SARS-CoV Urbani [1]: 0.4; Binding of serum 6 to looped/cyclic peptide (PEPSCAN-ELISA) [1]: 0.2; Binding of serum 37 to linear peptides of protein X1 of SARS-CoV Urbani [1]: 0.6; Binding of serum 37 to looped/cyclic peptide (PEPSCAN-ELISA) [1]: 0.4; Binding of serum 62 to linear peptides of protein X1 of SARS-CoV Urbani [1]: 0.5; Binding of serum 62 to looped/cyclic peptide (PEPSCAN-ELISA) [1]: 0.5; Binding of serum London to linear peptides of protein X1 of SARS-CoV Urbani [1]: 0.2; Binding of serum London to looped/cyclic peptide (PEPSCAN-ELISA) [1]: 0.2; Binding of serum SARS-green to linear peptides of protein X1 of SARS-CoV Urbani [1]: 0.3; Binding of serum SARS-green to looped/cyclic peptide (PEPSCAN-ELISA) [1]: 0.2; Binding of serum SARS-yellow to linear peptides of protein X1 of SARS-CoV Urbani [1]: 0.3; Binding of serum SARS-yellow to looped/cyclic peptide (PEPSCAN-ELISA) [1]: 0.4; Binding of a rabbit serum to linear peptides [3]: 0.1; Binding of a rabbit serum to looped peptides [3]: 0.5
2 | LLKEPCPSGTYEGNS | 0.6 | 0.6 | 0.6 | 0.8 | 0.3 | 0.1 | – | – | – | – | – | – | – | – | – | – | – | – | – | – | Binding of serum 1a to linear peptides of protein X4 of SARS-CoV Urbani [1]: 0.8; Binding of serum 1a to looped/cyclic peptides of protein X4 of SARS-CoV Urbani [1]: 0.8; Binding of serum 1b to linear peptides of protein X4 of SARS-CoV Urbani [1]: 0.6; Binding of serum 1b to looped/cyclic peptides of protein X4 of SARS-CoV Urbani [1]: 0.6; Binding of serum 2 to linear peptides of protein X4 of SARS-CoV Urbani [1]: 0.3; Binding of serum 2 to looped/cyclic peptides of protein X4 of SARS-CoV Urbani [1]: 0.6; Binding of serum 6 to linear peptides of protein X4 of SARS-CoV Urbani [1]: 0.6; Binding of serum 6 to looped/cyclic peptides of protein X4 of SARS-CoV Urbani [1]: 0.7; Binding of serum 37 to linear peptides of protein X4 of SARS-CoV Urbani [1]: 0.6; Binding of serum 37 to looped/cyclic peptides of protein X4 of SARS-CoV Urbani [1]: 0.7; Binding of serum 62 to linear peptides of protein X4 of SARS-CoV Urbani [1]: 0.8; Binding of serum 62 to looped/cyclic peptides of protein X4 of SARS-CoV Urbani [1]: 0.5; Binding of serum London to linear peptides of protein X4 of SARS-CoV Urbani [1]: 0.8; Binding of serum London to looped/cyclic peptides of protein X4 of SARS-CoV Urbani [1]: 0.3; Binding of serum SARS-green to linear peptides of protein X4 of SARS-CoV Urbani [1]: 0.5; Binding of serum SARS-green to looped/cyclic peptides of protein X4 of SARS-CoV Urbani [1]: 0.7; Binding of serum SARS-yellow to linear peptides of protein X4 of SARS-CoV Urbani [1]: 0.2; Binding of serum SARS-yellow to looped/cyclic peptides of protein X4 of SARS-CoV Urbani [1]: 0.2
3 | LLNVPLRGTIVTRPL | – | – | – | – | 0.4 | 0.0 | 0.8 | 0.5 | 0.5 | 0.5 | 0.6 | 0.7 | 0.4 | 0.3 | 0.1 | 0.9 | 0.7 | 0.4 | 0.5 | – | Recognition of the peptide by sera of SARS-CoV infected individuals, and form (linear, looped/cyclic) in which it is recognized [1]: recognized in looped/cyclic form
4 | LLQFAYSNRNRFLYI | – | – | – | – | 0.2 | 0.4 | 0.7 | 0.6 | 0.4 | 0.3 | 0.3 | 0.3 | 0.3 | 0.5 | 0.2 | 0.5 | 0.6 | 0.6 | 0.5 | 0.7 | Binding of serum 1b to looped/cyclic peptides of protein M of SARS-CoV Urbani [1]: 0.5; Binding of serum 2 to looped/cyclic peptides of protein M of SARS-CoV Urbani [1]: 0.6; Binding of serum 6 to looped/cyclic peptides of protein M of SARS-CoV Urbani [1]: 0.6; Binding of serum 37 to looped/cyclic peptides of protein M of SARS-CoV Urbani [1]: 0.5; Binding of serum 62 to looped/cyclic peptides of protein M of SARS-CoV Urbani [1]: 0.4; Binding of serum London to looped/cyclic peptides of protein M of SARS-CoV Urbani [1]: 0.2; Binding of serum SARS-green to looped/cyclic peptides of protein M of SARS-CoV Urbani [1]: 0.1; Binding of serum SARS-yellow to looped/cyclic peptides of protein M of SARS-CoV Urbani [1]: 0.5
5 | LLWPVTLACFVLAAV | – | – | – | – | 0.2 | 0.3 | 0.7 | 0.5 | 0.6 | 0.4 | 0.5 | 0.5 | 0.3 | 0.5 | 0.1 | 0.6 | 0.7 | 0.7 | 0.7 | 0.9 | Binding of serum 1b to looped/cyclic peptides of protein M of SARS-CoV Urbani [1]: 0.5; Binding of serum 2 to looped/cyclic peptides of protein M of SARS-CoV Urbani [1]: 0.9; Binding of serum 6 to looped/cyclic peptides of protein M of SARS-CoV Urbani [1]: 0.6; Binding of serum 37 to looped/cyclic peptides of protein M of SARS-CoV Urbani [1]: 0.8; Binding of serum 62 to looped/cyclic peptides of protein M of SARS-CoV Urbani [1]: 0.8; Binding of serum London to looped/cyclic peptides of protein M of SARS-CoV Urbani [1]: 0.3; Binding of serum SARS-green to looped/cyclic peptides of protein M of SARS-CoV Urbani [1]: 0.4; Binding of serum SARS-yellow to looped/cyclic peptides of protein M of SARS-CoV Urbani [1]: 0.9
